{
  "source": "patent US20240271096A1",
  "about": "“EFFICIENT DIFFERENTIATION OF SECOND HEART FIELD CARDIAC PROGENITOR CELLS AND RIGHT VENTRICLE CARDIOMYOCYTES FROM HUMAN PLURIPOTENT STEM CELLS” (Wisconsin Alumni Research Foundation, priority 2023, published 2024)",
  "key": {"SMAD1/5": {"test_system": "SMAD1/5", "assay": "Western blotting of SMAD1/5 phosphorylation in GiWi protocol", "type": "cell-based, human", "conditions": "insulin added on differentiation day 0; measured on day 3", "excerpt": "Using the cell lysis solution contained in the Minute Total Protein Extraction Kit for Animal Cultured Cells/Tissues (Invent Biotechnologies, Plymouth, MN, United States) with Protease Inhibitor Cocktail Set III (×100) (Fujifilm Wako Pure Chemical Corporation, Osaka, Japan) and Phosphatase Inhibitor Cocktail Solution II (×100) (Fujifilm Wako Pure Chemical Corporation), cells at day 3 of differentiation were lysed and proteins were extracted according to the manufacturer's instructions. Protein concentration was measured with a Pierce BCA Protein Assay Kit (Thermo Fisher Scientific), iMark microplate reader and Microplate Manager 6 software (Bio-Rad, Hercules, CA, USA). Fifty micrograms of protein combined with Laemmli sample buffer (Bio-Rad) were boiled at 95° C. for 5 minutes and then loaded onto 10% Mini-PROTEAN TGX Precast Gels (Bio-Rad). Proteins were transferred to nitrocellulose membranes and blocking was performed using Tris buffered saline with Tween20 with 5% nonfat dry milk for 1 hour at room temperature. […] Immunoblotted proteins were detected by ECL Prime Western blotting detection reagents and ImageQuant LAS4000 mini (GE Healthcare, Chicago, IL, USA)."}, "reporterless hiPSC line": {"test_system": "reporterless hiPSC line", "assay": "Immunostaining of marker proteins in hiPSC-derived cardiac progenitor cells and cardiomyocytes", "type": "cell-based, human", "procedure": "For LV-cardiomyocyte differentiation, cardiac differentiation was performed according to the protocol published by (Lian et al., 2012, Proc Natl Acad Sci USA 109:[…]-57). Cells were dissociated with StemPro Accutase Cell Dissociation Reagent at 37° C. for 5 minutes. HESCs were seeded on Matrigel-coated 24-well plates (Corning) in StemFlex Medium supplemented with 10 μmol/[…] were seeded on iMatrix-511-coated 12-well plates (Corning) in StemFit A[…] supplemented with 10 μmol/[…] at seeding densities of 1×10^5 cells/cm^2 for hESCs and 1.25-2.5×10^4 cells/cm^2 for hiPSCs. Cells were cultured for 4 days until the start of differentiation (day 0). On day 0, the medium was changed to RPMI 1640 Medium (Thermo Fisher Scientific) supplemented with B-27 Supplement minus insulin (Thermo Fisher Scientific) (RPMI/B27-insulin) or B-27 Supplement with insulin (Thermo Fisher Scientific), and 12 μmol/L CHIR 99021 (SelleckChem, Houston, TX, United States), and the cells incubated in this medium for 24 h (day 1). On day 1, the medium was changed to RPMI/B27-insulin. […] On day 3, the medium was changed to RPMI/B27-insulin supplemented with 5 μmol/L IWP2 (SelleckChem) and on day 5, the medium was changed to 1 ml RPMI/B27-insulin. From day 7, the cells were cultured with RPMI/B27-insulin, and the cells were fed every other day. On day 12, the cells were washed with PBS (Thermo Fisher Scientific) and cultured with DMEM or RPMI, no glucose supplemented with 8 mmol/L L-(+)-Lactic acid (Merck) (Tohyama et al., 2013 Cell Stem Cell, 12:127-37). The medium was changed every other day until day 17. After day 17, the cells were cultured with RPMI/B27 and fed every 2 to 3 days. For long-term culture, the cells were dissociated with TrypLETM Select Enzyme (10×) (Thermo Fisher Scientific) at 37° C. for 15-20 minutes and seeded on Matrigel- or iMatrix-511-coated plates. […] For FIG. 15A and FIG. 15B, dorsomorphin (DM) or 3 μg/L insulin were added on day 0 (for 24 hours), 1, 3, or 5 (for 48 hours). Cells were plated on iMatrix-511-coated plates and fixed in 4% paraformaldehyde (Nacalai, Kyoto, Japan) for 15 minutes. Cells were permeabilized with 0.1% Triton X-100 (Sigma-Aldrich, St. Louis, MO, United States)/PBS and blocked with 10% goat serum (Sigma-Aldrich). Primary and secondary antibodies were diluted in 0.1% Triton X-100/PBS with 5% goat serum and stained with Hoechst 33342 (Thermo Fisher Scientific) at 1 μg/mL, mouse anti-cardiac troponin T monoclonal IgG1 (GTX28295, GeneTex, Irvine, CA, United States) diluted at 1:16000, mouse anti-α-actinin monoclonal IgG1 (A7811, Sigma-Aldrich) diluted at 1:1000, rabbit anti-MLC2v monoclonal IgG (ab92721, Abcam, Cambridge, United Kingdom) diluted at 1:500, rabbit anti-CXCR4 monoclonal IgG (ab181020, Abcam) diluted at 1:2000, rabbit anti-NKX2-5 monoclonal IgG (Cat #. […], Cell Signaling Technology, Danvers, MA, United States) diluted at 1:2500, mouse anti-Nav1.5 (Car #. ASC-013, Alomone Labs) diluted at 1:1000, rabbit anti-connexin 43 (Cat #. 83649, Cell Signaling Technology) diluted at 1:1000, and mouse anti-TBX5 monoclonal IgG2a (Cat #. sc-515536, Santa Cruz Biotechnology, Dallas, TX, United States) diluted at 1:500. These cells were then incubated with a secondary antibody, goat anti-mouse or rabbit polyclonal IgG conjugated with iFluor 488 or 555 (AAT Bioquest, Sunnyvale, CA, United States) diluted at 1:1000, for 1 hour at room temperature. The cells were then observed with IX71 (Olympus, Tokyo, Japan) or EVOS FL Auto (Thermo Fisher Scientific) and images processed with ImageJ ([…] al., 2012, Nat Methods, 9:671-5)."}},
  "data": [
    {"substance": "insulin", "values": [
      {"measurement": "phosphorylation of SMAD1/5", "setting": "SMAD1/5", "value": "suppressed"},
      {"measurement": "RV cardiomyocytes differentiation", "setting": "reporterless hiPSC line; added on day 1 for 48 hours", "value": "induced optimal RV cardiomyocytes differentiation"},
      {"measurement": "CXCR4 immunostaining", "setting": "reporterless hiPSC line; insulin day 0 to day 1, day 6", "value": "upregulation"},
      {"measurement": "TBX5 expression (immunostaining)", "setting": "reporterless hiPSC line; insulin day 0 to day 1, day 10", "value": "greatly reduced"},
      {"measurement": "expression of pan-cardiomyocyte markers NKX2-5 and cardiac Troponin T (cTnT)", "setting": "reporterless hiPSC line; insulin day 0 to day 1, day 10", "value": "expressed"},
      {"measurement": "immunostaining of TBX5", "setting": "reporterless hiPSC line; insulin on day 1 for 48 hours (D1-3)", "value": "low"}
    ]}
  ]
}
